Read-outs that look alike come from different tables or passages of the source.
Key:
MAO-A = target: T1, MAO-A (Rattus norvegicus, UniProt P21396); test: Inhibition of monoamine oxidase: MAO-A; type: biochemical, rats (F344/Crj); conditions: 10 μM; 12 μM [14C]-serotonin substrate; None = 100; read-out: Inhibition rate (%) MAO-A
T1 construct: A crude synaptosomal fraction (P2) was obtained from the brain of rats (F344/Crj); from tissue; host or cells: rat (F344/Crj) brain, crude synaptosomal fraction (P2), homogenized
T1 sequence (P21396 1-526): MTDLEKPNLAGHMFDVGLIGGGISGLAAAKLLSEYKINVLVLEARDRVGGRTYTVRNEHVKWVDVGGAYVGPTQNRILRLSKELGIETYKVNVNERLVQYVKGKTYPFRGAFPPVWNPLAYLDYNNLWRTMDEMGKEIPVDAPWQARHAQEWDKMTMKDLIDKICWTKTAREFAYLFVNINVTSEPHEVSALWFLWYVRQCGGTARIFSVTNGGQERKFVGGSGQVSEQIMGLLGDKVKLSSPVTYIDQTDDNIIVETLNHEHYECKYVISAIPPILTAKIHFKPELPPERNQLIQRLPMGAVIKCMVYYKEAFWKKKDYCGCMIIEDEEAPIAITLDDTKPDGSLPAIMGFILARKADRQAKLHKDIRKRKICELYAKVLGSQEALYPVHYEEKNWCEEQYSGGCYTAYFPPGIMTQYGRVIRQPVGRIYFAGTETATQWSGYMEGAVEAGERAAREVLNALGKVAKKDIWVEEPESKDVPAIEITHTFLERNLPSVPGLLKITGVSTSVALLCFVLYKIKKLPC
Description: (§1) Inhibition of Monoamine Oxidase (MAO):
(§2) A crude synaptosomal fraction (P2) was obtained from the brain of rats (F344/Crj) in the usual manner and homogenized to perform MAO activity measurements. The substrate was 12 μM [^14 C]-serotonin in the case of MAO-A activity measurements, and 5 μM [^14 C]-2-phenethylamine in the case of MAO-B activity measurements. In accordance with the method of R. J. Wurtman and J. Axelrod described in Biochemical Pharmacol. 12, […], 1963, the homogenates were incubated in 100 mM phosphate buffer (pH 7.4) at 37° C. for 20 minutes and the effect of adding selected compounds at a concentration of 10 μM was evaluated.

[1] = tested on: norepinephrine uptake into the synaptosomes; test: Inhibition of catecholamine uptake: 3H-norepinephrine uptake into synaptosomes; type: biochemical, rats (F344/Crj); conditions: 1 μM; norepinephrine uptake in the absence of drug compounds taken as 100
Description: (§3) Inhibition of Catecholamine Uptake:
(§4) A crude synaptosomal fraction (P2) was obtained from the brain of rats (F344/Crj) in the usual manner. In accordance with the method of S. H. Snyder and J. T. Coyle described in Journal of Pharmacology and Experimental Therapeutics, 165(1), 78-86, 1969, the fraction P2 was incubated in a Krebs-Henseleit bicarbonate buffer solution at 37° C. for 10 minutes together with 50 nM ^3 H-norepinephrine (0.25 jμCi). Thereafter, the uptake of norepinephrine into the synaptosomes was measured by the filtration method. Selected compounds were added at a concentration of 1 μM to the solution being incubated and their effect on norepinephrine uptake was examined. The control drug was tetrahydroaminoacridine (THA).
The results are shown in Table 3 in terms of percentage, with norepinephrine uptake in the absence of drug compounds being taken as 100.

MAO-B = target: T2, MAO-B (Rattus norvegicus, UniProt P19643); test: Inhibition of monoamine oxidase: MAO-B; type: biochemical, rats (F344/Crj); conditions: 10 μM; 5 μM [14C]-2-phenethylamine substrate; None = 100; read-out: Inhibition rate (%) MAO-B
T2 construct: A crude synaptosomal fraction (P2) was obtained from the brain of rats (F344/Crj); from tissue; host or cells: rat (F344/Crj) brain, crude synaptosomal fraction (P2), homogenized
T2 sequence (P19643 1-520): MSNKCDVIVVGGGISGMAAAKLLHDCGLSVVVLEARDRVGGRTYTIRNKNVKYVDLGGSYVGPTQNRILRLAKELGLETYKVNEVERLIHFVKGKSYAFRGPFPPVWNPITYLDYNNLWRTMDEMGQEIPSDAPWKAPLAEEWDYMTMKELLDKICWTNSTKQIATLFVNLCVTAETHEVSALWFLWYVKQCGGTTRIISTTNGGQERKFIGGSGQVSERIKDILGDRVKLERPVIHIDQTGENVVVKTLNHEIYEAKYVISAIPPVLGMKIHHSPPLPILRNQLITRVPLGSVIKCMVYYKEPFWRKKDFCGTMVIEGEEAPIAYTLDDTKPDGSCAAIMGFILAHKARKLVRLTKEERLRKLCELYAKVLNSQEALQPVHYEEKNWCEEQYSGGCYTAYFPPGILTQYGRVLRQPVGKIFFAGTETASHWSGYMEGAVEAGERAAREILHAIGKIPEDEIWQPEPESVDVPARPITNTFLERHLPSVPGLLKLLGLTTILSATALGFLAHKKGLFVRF
Description: as §1, §2

acetylcholinesterase = target: T3, acetylcholinesterase (Electrophorus electricus, UniProt O42275); test: Inhibition of acetylcholinesterase activity; type: biochemical; conditions: activity without drug compound taken as 100, average of three measurements, read-out: Inhibition rate (%)
T3 construct: purchased Sigma C-2888
T3 sequence (O42275 24-633): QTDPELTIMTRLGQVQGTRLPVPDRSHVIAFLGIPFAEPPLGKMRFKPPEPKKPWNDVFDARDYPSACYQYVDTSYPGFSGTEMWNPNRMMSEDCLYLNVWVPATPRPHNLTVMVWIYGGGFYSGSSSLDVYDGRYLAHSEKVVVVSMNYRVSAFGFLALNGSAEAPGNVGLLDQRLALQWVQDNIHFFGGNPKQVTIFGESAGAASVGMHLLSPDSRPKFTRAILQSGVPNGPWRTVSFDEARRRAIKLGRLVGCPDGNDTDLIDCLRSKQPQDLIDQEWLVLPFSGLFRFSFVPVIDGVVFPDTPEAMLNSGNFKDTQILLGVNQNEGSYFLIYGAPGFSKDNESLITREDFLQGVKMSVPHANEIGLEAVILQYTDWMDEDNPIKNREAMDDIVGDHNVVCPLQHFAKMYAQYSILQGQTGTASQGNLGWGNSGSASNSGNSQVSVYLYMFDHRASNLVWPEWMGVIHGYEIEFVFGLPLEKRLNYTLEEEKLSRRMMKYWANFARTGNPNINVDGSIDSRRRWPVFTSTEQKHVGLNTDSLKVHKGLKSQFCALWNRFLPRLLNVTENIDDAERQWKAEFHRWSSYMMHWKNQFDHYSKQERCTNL
Description: Inhibition of Acetylcholinesterase Activity:
Acetylcholinesterase activity was assayed in accordance with the method of S. H. Sterri and F. Fonnum described in European Journal of Biochemistry, 91: 215-222, 1978. The method consisted of incubating 0.5 μU of authentic acetylcholinesterase ([…]) (Sigma, No. C-2888) at 30° C. for 15 minutes in a 20 mM sodium phosphate buffer (pH 7.4). with 1.3 mM [1^-14 C] acetylcholine (0.025 μCi) being used as a substrate. Selected compounds of the general formula (I) were added at a concentration of 1 μM to the reaction solution and the resulting effect on enzymatic activity was evaluated.
The result was obtained as the average of three measurements and shown in Table 2 in terms of percentage, with the activity for the case where no drum compound was added being taken as 100.

[2] = tested on: uptake of dopamine into synaptosomes; test: Inhibition of catecholamine uptake: 3H-dopamine uptake into synaptosomes; type: biochemical, rats (F344/Crj); conditions: 1 μM; dopamine uptake in the absence of drugs taken as 100
Description: as §4, §3
The uptake of dopamine into synaptosomes was measured by repeating the procedure of Test Example 2 except that 50 nM ^3 H-norepinephrine (0.25 μCi) was replaced by 15 nM ^3 H-dopamine (0.68 μCi). The control drug was tetrahydroaminoacridine (THA). The result is shown in Table 5 in terms of percentage, with dopamine uptake in the absence of drugs being taken as 100.

male rats (F344) = type: in vivo; conditions: p<0.05, n=6, AF64AP-treated rats
male ICR mice = test: Improvement of memory and learning ability tested by passive avoidance response; type: in vivo; conditions: dose 10 (μg/kg i.p.); retention trial 24 hours after acquisition trial
Description: Improvement of memory and Learning Ability Tested by Passive Avoidance Response:
Four groups of male ICR mice (10-14 weeks old). each consisting of 10 animals, were used in the experiment. Except for one control group, the mice were administered with selected compounds of the present invention. The experimental chamber consisted of a light and a dark compartment and an electric current shock source was connected to the floor grid in the dark compartment.
The experimental sessions consisted of acclimation. acquisition, and retention trials and were performed for […], one trial per day. In the acclimation trial, animals were placed in the light compartment of the experimental chamber and left there for 5 minutes to acclimate them to the apparatus. In the acquisition trial which was conducted on the 2nd day, the animals were placed in the light compartment and when they entered the dark compartment, they were confined and given an a.c. electric shock (1 mA) through the floor grid for 10 seconds. In the retention trial which was conducted 24 hours after the acquisition trial, the animals were placed in the light compartment of the chamber and the step-through latency (i.e., the time required for the animals to enter the dark compartment) was measured. A physiological saline solution was administered at the acclimation trial to all of the animals. At the acquisition trial, selected compounds were administered in amounts of 10 μg/kg of body weight (1 ml/100 g). The control group was administered the same amount of physiological saline solution 60 minutes before the start of the trial. All administrations were intraperitoneal.

Row | Structure (SMILES) | inhibition at 10 µM (MAO-A) [%] | Inhibition rate (%) [1] [%] | inhibition at 10 µM (MAO-B) [%] | inhibition at 1 µM (acetylcholinesterase) [%] | Inhibition rate (%) [2] [%] | number of correct responses vs vehicle control (male rats (F344); 10 mg/kg orally) | number of correct responses vs vehicle control (male rats (F344); 30 mg/kg orally) | Step through latency (male ICR mice) [s]
1 | Nc1c(N2CCCCC2)c(C2CCCCC2=O)nc2ccccc12 (centres unmarked) [Compound 7, 4-amino-3-piperidino-2-(2'-oxocyclohexyl)quinoline] | 58.7 | 79.0 | 87.5 | 38.1 | 86.4 | statistically significant increase in the number of correct responses | statistically significant increase in the number of correct responses | 104.1 ± 28.5
2 | Nc1c2c(nc(C3CCCCC3O)c1N1CCCCC1)CCCC2 (centres unmarked) [Compound 9] | 59.4 | 69.4 | 89.4 | 38.8 | 78.6 |  |  | 54.4 ± 7.2
